# Results published in patent publication US10065970B2 (Genentech, Inc., priority 2015, dated 2018).
# Like-named read-outs stand apart in the source and are kept apart here.
# Molecular target: PI3Kα (alpha) (Homo sapiens (Human), UniProt P42336)
# Test: p110α (alpha) PI3K Binding Assay (ADP-Glo lipid kinase reaction)
# Assay type: biochemical
# Conditions: read-out: PI3Kα-(alpha) ATP (Ki) micromolar
# Procedure: The ability of a compound of the invention to act as an inhibitor of PI3Kα was determined using the methods of Example 901.
# PI3K Binding assays are intended for determining the biochemical potency of small molecule PI3K inhibitors. The PI3K lipid kinase reaction is performed in the presence of PIP2:3PS lipid substrate (Promega #V1792) and ATP. Following the termination if the kinase reaction, turnover of ATP to ADP by the phosphorylation of the lipid substrate is detected using the Promega ADP-Glo™ (Promega #V1792) assay. Reactions are carried out using the following conditions:
# After 120 minutes of reaction time, the kinase reaction is terminated. Any ATP remaining after the reaction is depleted, leaving only ADP. Then the Kinase Detection Reagent is added to convert ADP to ATP, which is used in a coupled luciferin/luciferase reaction. The luminescent output is measured and is correlated with kinase activity.
# All reactions are carried out at room temperature. A 3 μl mixture (1:1) of enzyme/lipid substrate solution is added to a 384 well white assay plate (Perkin Elmer #6007299) containing 50 nl of test compound or DMSO only for untreated controls. The reaction is started by the addition of 2 μl ATP/MgCl2. The kinase reaction buffer contains 50 mM HEPES, 50 mM NaCl, 3 mM MgCl2, 0.01% BSA, 1% DMSO, and enzyme and substrate concentrations as indicated in the above table. The reaction is stopped by the addition of 10 μL ADP-Glo reagent. Plates are read in a Perkin Elmer Envision system using luminescence mode. 10 point dose response curves are generated for each test compound. Ki values for each compound are determined using the Morrison Equation.
# [1] = PI3K alpha 0.2 nM, ATP 40 μM, PIP2:3PS 50 μM, 120 min, room temperature, Ki by Morrison Equation
# PI3Kα (alpha), sequence (P42336 whole entry): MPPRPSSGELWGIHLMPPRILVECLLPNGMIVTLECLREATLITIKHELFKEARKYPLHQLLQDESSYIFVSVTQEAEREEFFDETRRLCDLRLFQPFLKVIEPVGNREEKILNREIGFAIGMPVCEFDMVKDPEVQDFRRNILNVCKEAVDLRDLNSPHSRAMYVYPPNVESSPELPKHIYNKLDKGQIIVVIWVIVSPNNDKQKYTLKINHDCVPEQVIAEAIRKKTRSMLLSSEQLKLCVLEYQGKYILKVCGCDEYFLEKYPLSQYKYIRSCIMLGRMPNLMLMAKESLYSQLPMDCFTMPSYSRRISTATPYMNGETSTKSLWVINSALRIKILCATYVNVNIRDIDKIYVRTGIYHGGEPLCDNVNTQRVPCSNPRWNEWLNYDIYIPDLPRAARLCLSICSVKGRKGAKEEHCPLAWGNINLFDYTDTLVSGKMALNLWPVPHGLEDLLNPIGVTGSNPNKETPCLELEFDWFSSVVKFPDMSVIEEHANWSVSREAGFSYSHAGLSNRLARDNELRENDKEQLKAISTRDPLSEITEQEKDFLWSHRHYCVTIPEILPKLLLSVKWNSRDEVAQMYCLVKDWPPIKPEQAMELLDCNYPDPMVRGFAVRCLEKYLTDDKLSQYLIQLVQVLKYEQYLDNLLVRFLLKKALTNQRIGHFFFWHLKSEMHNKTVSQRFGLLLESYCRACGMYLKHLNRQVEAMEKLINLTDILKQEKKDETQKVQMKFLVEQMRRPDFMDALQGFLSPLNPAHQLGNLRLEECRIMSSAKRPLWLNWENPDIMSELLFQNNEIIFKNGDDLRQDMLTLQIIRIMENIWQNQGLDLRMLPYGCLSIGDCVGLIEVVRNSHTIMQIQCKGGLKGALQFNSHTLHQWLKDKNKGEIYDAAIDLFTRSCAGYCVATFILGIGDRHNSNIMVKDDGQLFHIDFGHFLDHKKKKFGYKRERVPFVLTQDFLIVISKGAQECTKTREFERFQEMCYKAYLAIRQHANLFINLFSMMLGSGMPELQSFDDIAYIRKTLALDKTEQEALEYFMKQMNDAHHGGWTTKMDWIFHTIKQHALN
# PI3Kα (alpha), sequence (P27986 whole entry partner): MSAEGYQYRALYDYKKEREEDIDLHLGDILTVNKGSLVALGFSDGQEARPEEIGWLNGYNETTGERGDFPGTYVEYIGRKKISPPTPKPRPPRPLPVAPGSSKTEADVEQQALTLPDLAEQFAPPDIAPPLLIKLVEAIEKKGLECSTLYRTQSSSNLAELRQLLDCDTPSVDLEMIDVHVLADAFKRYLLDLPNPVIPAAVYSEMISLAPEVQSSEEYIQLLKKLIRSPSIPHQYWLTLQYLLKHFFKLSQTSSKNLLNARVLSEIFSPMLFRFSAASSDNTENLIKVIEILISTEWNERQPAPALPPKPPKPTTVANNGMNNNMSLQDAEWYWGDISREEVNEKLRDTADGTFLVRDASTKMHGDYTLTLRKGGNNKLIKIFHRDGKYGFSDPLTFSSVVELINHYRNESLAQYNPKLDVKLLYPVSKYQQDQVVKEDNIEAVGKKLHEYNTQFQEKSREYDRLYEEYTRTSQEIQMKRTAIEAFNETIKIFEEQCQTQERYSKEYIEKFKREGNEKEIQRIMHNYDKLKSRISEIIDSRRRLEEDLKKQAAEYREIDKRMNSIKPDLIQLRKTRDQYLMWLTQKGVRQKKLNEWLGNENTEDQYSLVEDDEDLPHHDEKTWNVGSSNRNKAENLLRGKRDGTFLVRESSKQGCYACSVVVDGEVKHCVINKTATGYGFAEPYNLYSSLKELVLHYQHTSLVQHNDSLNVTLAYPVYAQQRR
Ki [1] [µM],Ki [µM],SMILES
0.681,–,"C[C@H](Nc1cc2c3c(c1)nc(N1CCC(CO)CC1)n3CCCO2)C(N)=O [Example 140, (S)-2-[1-(4-Hydroxymethylpiperidin-1-yl)-8,9-dihydro-7H-6-oxa-2,9a-diazabenzo[cd]azulen-4-ylamino]propionamide]"
0.74,–,"NC(=O)[C@@H](Nc1cc2c3c(c1)nc(N1CCOCC1)n3CCCO2)C1CC1 [Example 141, (S)-2-Cyclopropyl-2-((1-morpholino-8,9-dihydro-7H-6-oxa-2,9a-diazabenzo[cd]azulen-4-yl)amino)acetamide]"
0.187,–,"NC(=O)[C@@H](Nc1cc2c3c(c1)nc(-c1cccc(OC(F)F)c1)n3CCCO2)C1CC1 [Example 143, (S)-2-Cyclopropyl-2-((1-(3-(difluoromethoxy)phenyl)-8,9-dihydro-7H-6-oxa-2,9a-diazabenzo[cd]azulen-4-yl)amino)acetamide]"
0.34,–,"COc1ccc(-c2nc3cc(N[C@H](C(N)=O)C4CC4)cc4c3n2CCCO4)c(F)c1 [Example 144, (S)-2-Cyclopropyl-2-((1-(2-fluoro-4-methoxyphenyl)-8,9-dihydro-7H-6-oxa-2,9a-diazabenzo[cd]azulen-4-yl)amino)acetamide]"
0.382,–,"NC(=O)[C@@H](Nc1cc2c3c(c1)nc(-c1ccc(F)cc1F)n3CCCO2)C1CC1 [Example 145, (S)-2-Cyclopropyl-2-((1-(2,4-difluorophenyl)-8,9-dihydro-7H-6-oxa-2,9a-diazabenzo[cd]azulen-4-yl)amino)acetamide]"
0.139,–,"Cn1cc(-c2nc3cc(N[C@H](C(N)=O)C4CC4)cc4c3n2CCCO4)ccc1=O [Example 147, (S)-2-Cyclopropyl-2-((1-(1-methyl-6-oxo-1,6-dihydropyridin-3-yl)-8,9-dihydro-7H-6-oxa-2,9a-diazabenzo[cd]azulen-4-yl)amino)acetamide]"
0.059,–,"NC(=O)[C@@H](Nc1cc2c3c(c1)nc(-c1cnc4c(c1)OCCO4)n3CCCO2)C1CC1 [Example 148, (S)-2-Cyclopropyl-2-((1-(2,3-dihydro-[1,4]dioxino[2,3-b]pyridin-7-yl)-8,9-dihydro-7H-6-oxa-2,9a-diazabenzo[cd]azulen-4-yl)amino)acetamide]"
0.0182,–,"NC(=O)[C@@H](Nc1cc2c3c(c1)nc(N1Cc4cnc(N)nc4C1)n3CCCO2)C1CC1 [Example 149, (S)-2-((1-(2-Amino-5H-pyrrolo[3,4-d]pyrimidin-6(7H)-yl)-8,9-dihydro-7H-6-oxa-2,9a-diazabenzo[cd]azulen-4-yl)amino)-2-cyclopropylacetamide]"
0.49,–,"NC(=O)[C@@H](Nc1cc2c3c(c1)nc(-c1ccc(OC(F)F)cc1)n3CCCO2)C1CC1 [Example 150, (S)-2-Cyclopropyl-2-((1-(4-(difluoromethoxy)phenyl)-8,9-dihydro-7H-6-oxa-2,9a-diazabenzo[cd]azulen-4-yl)amino)acetamide]"
0.0102,–,"NC(=O)c1cc(-c2nc3cc(N[C@H](C(N)=O)C4CC4)cc4c3n2CCCO4)ccn1 [Example 151, (S)-4-(4-((2-Amino-1-cyclopropyl-2-oxoethyl)amino)-8,9-dihydro-7H-6-oxa-2,9a-diazabenzo[cd]azulen-1-yl)picolinamide]"
0.000638,–,"Nc1nc2cc(-c3nc4cc(-c5cnn(CCO)c5)cc5c4n3CCCO5)ccc2o1 [Example 152, 2-(4-(1-(2-Aminobenzo[d]oxazol-5-yl)-8,9-dihydro-7H-6-oxa-2,9a-diazabenzo[cd]azulen-4-yl)-1H-pyrazol-1-yl)ethanol]"
0.00074,–,"Cn1cc(-c2cc3c4c(c2)nc(-c2ccc5oc(N)nc5c2)n4CCCO3)cn1 [Example 153, 5-(4-(1-Methyl-1H-pyrazol-4-yl)-8,9-dihydro-7H-6-oxa-2,9a-diazabenzo[cd]azulen-1-yl)benzo[d]oxazol-2-amine]"
0.000317,–,"CNC(=O)C(C)(C)n1cc(-c2cc3c4c(c2)nc(-c2ccc5oc(N)nc5c2)n4CCCO3)cn1 [Example 154, 2-(4-(1-(2-Aminobenzo[d]oxazol-5-yl)-8,9-dihydro-7H-6-oxa-2,9a-diazabenzo[cd]azulen-4-yl)-1H-pyrazol-1-yl)-N,2-dimethylpropanamide]"
0.078,–,"NC(=O)[C@@H](Nc1cc2c3c(c1)nc(-c1ccc4[nH]c(=O)oc4c1)n3CCCO2)C1CC1 [Example 155, (S)-2-Cyclopropyl-2-((1-(2-oxo-2,3-dihydrobenzo[d]oxazol-6-yl)-8,9-dihydro-7H-6-oxa-2,9a-diazabenzo[cd]azulen-4-yl)amino)acetamide]"
0.000264,–,"NC(=O)[C@@H](Nc1cc2c3c(c1)nc(-c1ccn4ncnc4n1)n3CCCO2)C1CC1 [Example 156, (S)-2-((1-([1,2,4]triazolo[1,5-a]pyrimidin-5-yl)-8,9-dihydro-7H-6-oxa-2,9a-diazabenzo[cd]azulen-4-yl)amino)-2-cyclopropylacetamide]"
0.0165,–,"NC(=O)c1cc(-c2nc3cc(N[C@H](C(N)=O)C4CC4)cc4c3n2CCCO4)ccc1F [Example 157, (S)-5-(4-((2-Amino-1-cyclopropyl-2-oxoethyl)amino)-8,9-dihydro-7H-6-oxa-2,9a-diazabenzo[cd]azulen-1-yl)-2-fluorobenzamide]"
0.206,–,"COC(=O)c1cc(-c2nc3cc(N[C@H](C(N)=O)C4CC4)cc4c3n2CCCO4)ccc1OC [Example 158, (S)-Methyl 5-(4-((2-amino-1-cyclopropyl-2-oxoethyl)amino)-8,9-dihydro-7H-6-oxa-2,9a-diazabenzo[cd]azulen-1-yl)-2-methoxybenzoate]"
0.0872,–,"CS(=O)(=O)c1cc(-c2nc3cc(N[C@H](C(N)=O)C4CC4)cc4c3n2CCCO4)ccn1 [Example 159, (S)-2-Cyclopropyl-2-((1-(2-(methylsulfonyl)pyridin-4-yl)-8,9-dihydro-7H-6-oxa-2,9a-diazabenzo[cd]azulen-4-yl)amino)acetamide]"
0.914,–,"Cc1nn(C)cc1-c1nc2cc(N[C@H](C(N)=O)C3CC3)cc3c2n1CCCO3 [Example 160, (S)-2-Cyclopropyl-2-[1-(1,3-dimethyl-1H-pyrazol-4-yl)-8,9-dihydro-7H-6-oxa-2,9a-diazabenzo[cd]azulen-4-ylamino]acetamide]"
0.121,–,"NC(=O)[C@@H](Nc1cc2c3c(c1)nc(N1CCn4ncnc4C1)n3CCCO2)C1CC1 [Example 161, (S)-2-Cyclopropyl-2-((1-(5,6-dihydro-[1,2,4]triazolo[1,5-a]pyrazin-7(8H)-yl)-8,9-dihydro-7H-6-oxa-2,9a-diazabenzo[cd]azulen-4-yl)amino)acetamide]"
0.000201,–,"C[C@H](Oc1cc2c3c(c1)nc(-c1ccc4oc(N)nc4c1)n3CCCO2)C(N)=O [Example 162, (S)-2-((1-(2-Aminobenzo[d]oxazol-5-yl)-8,9-dihydro-7H-6-oxa-2,9a-diazabenzo [cd]azulen-4-yl)oxy)propanamide]"
0.0342,–,"COc1ccc(-c2nc3cc(N[C@H](C(N)=O)C4CC4)cc4c3n2CCCO4)cc1OC(F)F [Example 163, (S)-2-Cyclopropyl-2-((1-(3-(difluoromethoxy)-4-methoxyphenyl)-8,9-dihydro-7H-6-oxa-2,9a-diazabenzo[cd]azulen-4-yl)amino)acetamide]"
0.16,–,"COc1ccc(-c2nc3cc(N[C@H](C(N)=O)C4CC4)cc4c3n2CCCO4)cc1C(N)=O [Example 164, (S)-5-(4-((2-Amino-1-cyclopropyl-2-oxoethyl)amino)-8,9-dihydro-7H-6-oxa-2,9a-diazabenzo[cd]azulen-1-yl)-2-methoxybenzamide]"
0.108,–,"NC(=O)[C@@H](Nc1cc2c3c(c1)nc(-c1ccncc1)n3CCCO2)C1CC1 [Example 165, (S)-2-Cyclopropyl-2-((1-(pyridin-4-yl)-8,9-dihydro-7H-6-oxa-2,9a-diazabenzo[cd]azulen-4-yl)amino)acetamide]"
0.402,–,"OCc1nc2cc(-c3nc4cc(Br)cc5c4n3CCCO5)ccc2o1 [Example 168, (5-(4-Bromo-8,9-dihydro-7H-6-oxa-2,9a-diazabenzo[cd]azulen-1-yl)benzo[d]oxazol-2-yl)methanol]"
0.00392,–,"NC(=O)[C@@H](Nc1cc2c3c(c1)nc(-c1ccnc4[nH]ncc14)n3CCCO2)C1CC1 [Example 169, (S)-2-((1-(1H-Pyrazolo[3,4-b]pyridin-4-yl)-8,9-dihydro-7H-6-oxa-2,9a-diazabenzo[cd]azulen-4-yl)amino)-2-cyclopropylacetamide]"
0.000614,–,"NC(=O)[C@@H](Nc1cc2c3c(c1)nc(-c1ccc4nc(N)sc4c1)n3CCCO2)C1CC1 [Example 170, (S)-2-((1-(2-Aminobenzo[d]thiazol-6-yl)-8,9-dihydro-7H-6-oxa-2,9a-diazabenzo[cd]azulen-4-yl)amino)-2-cyclopropylacetamide]"
–,0.000501,"Nc1nc2cc(-c3nc4cc(Br)cc5c4n3CCCCO5)ccc2o1 [Example 172, 5-(4-bromo-7,8,9,10-tetrahydro-6-oxa-2,10a-diazacycloocta[cd]-inden-1-yl)benzo[d]oxazol-2-amine]"
